US20050209345A1, “Lymphatic drug delivery system” (priority 2001, published 2005)
Read-outs that look alike come from different tables or passages of the source.

What was measured:
[1] = rats, soybean emulsion, 24 h post dosing; cited from earlier work
[2] = in soybean oil; cited from earlier work
[3] = rats, oral, cited from earlier work
[4] = rats; cited from earlier work
[5] = conscious rats, cited from earlier work
[6] = in vivo; cited from earlier work
[7] = dog, in vivo, po
Experimental: (§1) All surgical and experimental procedures were performed in accordance with the guidelines and approval of the local Institutional Animal Experimentation Ethics Committee. Studies were conducted in male greyhound dogs (28-35 kg), and their health status was verified by a veterinarian prior to the study. Prior to surgery, each dog was fed a small lipid meal to facilitate identification of the thoracic duct. […] Each dog received intravenous infusion of Lactated Ringer's solution (300 mL/h) during surgery, and a post-operative injection of antibiotic (cephazolin, 20 mg/kg) and analgesic (carprofen, 4 mg/kg).
(§2) The ventral abdomen was firstly clipped and prepared for aseptic surgery. A 5 cm long ventral midline laparotomy was performed to allow a loop of jejunum to be exteriorised. A 133 mm 16 gauge cannula was then inserted into a jejunal vein to the level of the portal vein. The cannula was stabilised in both the portal and jejunal veins with a ligature of 3/0 silk to the jejunal vein and a minimal volume extension tube, filled with heparinised saline, was then attached and externalised through a separate stab incision in the left flank and stabilised with sutures. The laparotomy wound was closed in anatomical layers with 3/0 polydioxinone sutures. The position of the cannula in the portal vein was confirmed by a portal venogram following a 10 mL injection of a contrast dye (Iohexol), and cannula patency was maintained by small volume flushing with heparinised saline (1 U/mL).
(§3) The left ventral neck area and cranial thorax was clipped and prepared for aseptic surgery. A curved incision was made over the left external jugular vein and the vein was then dissected from the surrounding tissues to the axillary vein. At the junction of the internal jugular and brachiocephalic veins, the thoracic duct ampulla was identified by its whitish appearance This was then ligated at the point of entrance into the brachiocephalic vein and all tributaries converging to the thoracic duct were ligated to ensure the return of lymph through the main lymphatic canal. […]

[8] = Thoracic lymph duct and portal vein cannulated greyhound dog study: lymphatic transport of halofantrine and triglyceride, systemic availability; conditions: fed dogs, IV 2 mg/kg, over 12 h, mean +/- sd, n = 3
Experimental: as §1, §2, §3

Cc1ccc2oc(N[C@@H](CC3CCCCC3)c3ccccn3)nc2c1 [ontazolast]
total amount of lymphatically transported ontazolast, increase versus aqueous based suspension [1]: ~50 fold

CC(C)CCC[C@@H](C)[C@H]1CC[C@H]2[C@@H]3[C@@H](C)C[C@H]4N(C)C(=O)CC[C@]4(C)[C@H]3CC[C@]12C [MK-386]
lipid solubility [2]: > 80 mg/mL
rank order of total amount transported into the mesenteric lymph by formulation ([3]; 6 h post-dosing): aqueous suspension>mixed lipid/surfactant system>soybean oil
levels of radioactivity in the lymph compared with the portal blood ([3]; all three formulations): up to 80 fold

COC1(O[C@H]2CC[C@H]3[C@@H]4CC[C@H]5C[C@@H]6S[C@@H]6C[C@]5(C)[C@H]4CC[C@]23C)CCCC1 [mepitiostane]
extent of lymphatic transport, polysorbate 80 micellar solution versus triglyceride lipid vehicle [4]: no significant differences

CCCCCCCCCCC(C)(C)C(=O)Nc1c(OC)cc(OC)cc1OC [Cl-976]
total amount transported in lymph as percent of dose, lipid-based emulsion compared with suspension ([5]; over 14 h): 7 times
absolute amount of drug transported lymphatically [5]: < 1%

CCCCCCCCCCCCCCCC(=O)OC/C=C(C)/C=C/C=C(C)/C=C/C1=C(C)CCCC1(C)C [retinyl palmitate]
lymphatic transport, aqueous polysorbate 80 micellar solution compared with lipid solution [6]: two-fold increase

CCCCN(CCCC)CCC(O)c1cc2c(Cl)cc(Cl)cc2c2cc(C(F)(F)F)ccc12 (centres unmarked) [Hf base]
Cum Hf transport in lymph (% dose) [7]: 1.3 +/− 0.7 % dose
Transport into syst circulation (% dose) [7]: 30.2 +/− 18.7 % dose

CCCCN(CCCC)CCC(O)c1cc2c(Cl)cc(Cl)cc2c2cc(C(F)(F)F)ccc12 (centres unmarked) [Hf, halofantrine]
Cum Hf transport in lymph (% dose) [8]: 1.5 +/− 0.2 % dose
